Measured values reported in patent US12077503B2, “Substituted cyclic amides and their use as herbicides” (FMC CORPORATION, priority 2015, dated 2024).

Key:
Format in all cases: in vivo
[1] = system: wheat (Triticum aestivum); assay: Test A postemergence; details: postemergence, 0 to 100 scale (0 no effect, 100 complete control)
In short: (§1)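 Preemergence soil spray on seeded pots or post-emergence spray on 1–2 leaf plants, in loam–sand blend. Greenhouse ~10 d. Visual rating 0–100 against untreated plants.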

Kochia (Kochia scoparia) [2] = assay: Test A postemergence; details: postemergence, 0 to 100 scale (0 no effect, 100 complete control)
In short: as §1

[3] = system: blackgrass (Alopecurus myosuroides); assay: Test A postemergence
In short: as §1

corn (Zea mays) = assay: Test A postemergence
In short: as §1

[4] = system: ryegrass, Italian (Italian ryegrass, Lolium multiflorum); assay: Test A postemergence; details: postemergence, 0 to 100 scale (0 no effect, 100 complete control)
In short: as §1

[5] = system: ragweed (common ragweed, Ambrosia elatior); assay: Test A postemergence; details: postemergence, 0 to 100 scale (0 no effect, 100 complete control)
In short: as §1

[6] = system: barnyardgrass (Echinochloa crus-galli); assay: Test A postemergence
In short: as §1

[7] = system: pigweed (Amaranthus retroflexus); assay: Test A postemergence; details: postemergence, 0 to 100 scale (0 no effect, 100 complete control)
In short: as §1

[8] = system: Galium (catchweed bedstraw, Galium aparine); assay: Test A postemergence; details: postemergence, 0 to 100 scale (0 no effect, 100 complete control)
In short: as §1

[9] = system: giant foxtail (Setaria faberii); assay: Test A postemergence; details: postemergence, 0 to 100 scale (0 no effect, 100 complete control)
In short: as §1

rice (Oryza sativa) = assay: Test C flooded paddy test; details: Flood; for Plant response rating, Rice: 31 g ai/ha, scale 0 to 100 (0 no effect, 100 complete control), 13 to 15 d; for Plant response rating (scale of 0 to 100), Rice: 0 is no effect, 100 is complete control
In short: (§2)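 Compound was added directly to paddy water held 3 cm above the soil, with plants at the 2-leaf stage. Injury was scored visually versus untreated controls after 13–15 d greenhouse growth, using a 0–100 scale where 100 means complete control.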

[10] = system: sedge, umbrella (small-flower umbrella sedge, Cyperus difformis); assay: Test C flooded paddy test; details: Flood; for Plant response rating, Sedge, Umbrella: 31 g ai/ha, scale 0 to 100 (0 no effect, 100 complete control), 13 to 15 d; for Plant response rating (scale of 0 to 100), Sedge, Umbrella: 0 is no effect, 100 is complete control
In short: as §2

[11] = system: barnyardgrass (Echinochloa crus-galli); assay: Test C flooded paddy test; details: Flood; for Plant response rating, Barnyardgrass: 31 g ai/ha, scale 0 to 100 (0 no effect, 100 complete control), 13 to 15 d; for Plant response rating (scale of 0 to 100), Barnyardgrass: 0 is no effect, 100 is complete control
In short: as §2

[12] = system: ducksalad (Heteranthera limosa); assay: Test C flooded paddy test; details: Flood; for Plant response rating, Ducksalad: 31 g ai/ha, scale 0 to 100 (0 no effect, 100 complete control), 13 to 15 d; for Plant response rating (scale of 0 to 100), Ducksalad: 0 is no effect, 100 is complete control
In short: as §2

Kochia (Kochia scoparia) [13] = assay: Test A preemergence
In short: as §1

[14] = system: ryegrass, Italian (Italian ryegrass, Lolium multiflorum); assay: Test A preemergence
In short: as §1

[15] = system: ragweed (common ragweed, Ambrosia elatior); assay: Test A preemergence
In short: as §1

[16] = system: barnyardgrass (Echinochloa crus-galli); assay: Test A preemergence
In short: as §1

[17] = system: pigweed (Amaranthus retroflexus); assay: Test A preemergence
[18] = system: giant foxtail (Setaria faberii); assay: Test A preemergence
In short: as §1

[19] = system: sedge, umbrella (small-flower umbrella sedge, Cyperus difformis); assay: Test B flooded paddy test; details: Flood, 250 g ai/ha; 0 to 100 scale where 0 is no effect and 100 is complete control; 13 to 15 d
In short: (§3)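 Compound goes directly into floodwater once pots are flooded 3 cm above soil, targeting plants at two leaves; the water depth is then held for the test duration. Plants sit 13–15 d in a greenhouse and are rated visually, 100 denoting complete control.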

[20] = system: barnyardgrass (Echinochloa crus-galli); assay: Test B flooded paddy test; details: Flood, 250 g ai/ha; 0 to 100 scale where 0 is no effect and 100 is complete control; 13 to 15 d
In short: as §3

rice (Oryra sativa) = assay: Test B flooded paddy test; details: Flood, 250 g ai/ha; 0 to 100 scale where 0 is no effect and 100 is complete control; 13 to 15 d
In short: as §3

[21] = system: ducksalad (Heteranthera limosa); assay: Test B flooded paddy test; details: Flood, 250 g ai/ha; 0 to 100 scale where 0 is no effect and 100 is complete control; 13 to 15 d
In short: as §3

[22] = 125 g ai/ha, visual rating after approx. 10 d
[23] = 500 g ai/ha, visual injury, approx. 10 d
[24] = 125 g ai/ha, postemergence, visual rating after approx. 10 d, 0 to 100 scale (0 no effect, 100 complete control)
[25] = Postemergence, 500 g ai/ha, 0 to 100 scale where 0 is no effect and 100 is complete control
[26] = 125 g ai/ha, Preemergence, visual injury after approximately 10 d, 0 to 100 scale where 0 is no effect and 100 is complete control
[27] = 500 g ai/ha, preemergence, 0 to 100 scale, 0 = no effect, 100 = complete control
[28] = 500 g ai/ha, postemergence, visual injury, 0 to 100 scale (0 no effect, 100 complete control), approx. 10 d

CN1CC(c2cccc(C(F)(F)F)c2)C(C(=O)Nc2ccccc2C(F)(F)F)C1=O (centres unmarked) [Compound 638]
Plant response rating, Wheat [1, 22]: 60
Plant response rating, Wheat [1, 23]: 70
Plant response rating, Kochia (Kochia (Kochia scoparia) [2]; [22]): 20
Plant response rating, Kochia (Kochia (Kochia scoparia) [2]; [23]): 40
Plant response rating, Blackgrass [3, 24]: 50
Plant response rating, Blackgrass [3, 25]: 70
Plant response rating, Corn (corn (Zea mays); [24]): 70
Plant response rating, Corn (corn (Zea mays); [25]): 80
Plant response rating, Ryegrass, Italian [4, 22]: 30
Plant response rating, Ryegrass, Italian [4, 23]: 40
Plant response rating, Ragweed [5, 22]: 0
Plant response rating, Ragweed [5, 23]: 0
Plant response rating, Barnyardgrass [6, 24]: 90
Plant response rating, Barnyardgrass [6, 25]: 90
Plant response rating, Pigweed [7, 22]: 20
Plant response rating, Pigweed [7, 23]: 50
Plant response rating, Galium [8, 22]: 60
Plant response rating, Galium [8, 23]: 60
Plant response rating, Foxtail, Giant [9, 22]: 90
Plant response rating, Foxtail, Giant [9, 23]: 90
Plant response rating, Rice (rice (Oryza sativa)): 20
Plant response rating (scale of 0 to 100), Rice (rice (Oryza sativa); 62 g ai/ha): 25
Plant response rating (scale of 0 to 100), Rice (rice (Oryza sativa); 125 g ai/ha): 25
Plant response rating (scale of 0 to 100), Rice (rice (Oryza sativa); 250 g ai/ha): 25
Plant response rating, Sedge, Umbrella [10]: 0
Plant response rating (scale of 0 to 100), Sedge, Umbrella ([10]; 62 g ai/ha): 0
Plant response rating (scale of 0 to 100), Sedge, Umbrella ([10]; 125 g ai/ha): 0
Plant response rating (scale of 0 to 100), Sedge, Umbrella ([10]; 250 g ai/ha): 0
Plant response rating, Barnyardgrass [11]: 45
Plant response rating (scale of 0 to 100), Barnyardgrass ([11]; 62 g ai/ha): 55
Plant response rating (scale of 0 to 100), Barnyardgrass ([11]; 125 g ai/ha): 60
Plant response rating (scale of 0 to 100), Barnyardgrass ([11]; 250 g ai/ha): 75
Plant response rating, Ducksalad [12]: 0
Plant response rating (scale of 0 to 100), Ducksalad ([12]; 62 g ai/ha): 40
Plant response rating (scale of 0 to 100), Ducksalad ([12]; 125 g ai/ha): 60
Plant response rating (scale of 0 to 100), Ducksalad ([12]; 250 g ai/ha): 75
Plant response rating, Kochia (Kochia (Kochia scoparia) [13]; [26]): 0
Plant response rating, Kochia (Kochia (Kochia scoparia) [13]; [27]): 20
Plant response rating, Ryegrass, Italian [14, 26]: 30
Plant response rating, Ryegrass, Italian [14, 27]: 90
Plant response rating, Ragweed [15, 26]: 30
Plant response rating, Ragweed [15, 27]: 60
Plant response rating, Barnyardgrass [16, 26]: 90
Plant response rating, Barnyardgrass [16, 27]: 90
Plant response rating, Pigweed [17, 26]: 40
Plant response rating, Pigweed [17, 27]: 60
Plant response rating, Foxtail, Giant [18, 26]: 90
Plant response rating, Foxtail, Giant [18, 27]: 100
Plant response rating, Sedge, Umbrella [19]: 0
Plant response rating, Barnyardgrass [20]: 85
Plant response rating, Rice (rice (Oryra sativa)): 10
Plant response rating, Ducksalad [21]: 100

CN1CC(c2cc(F)cc(F)c2)C(C(=O)Nc2ccccc2F)C1=O (centres unmarked) [Compound 643]
Plant response rating, Wheat [1, 22]: 0
Plant response rating, Wheat [1, 23]: 50
Plant response rating, Kochia (Kochia (Kochia scoparia) [2]; [22]): 0
Plant response rating, Kochia (Kochia (Kochia scoparia) [2]; [23]): 20
Plant response rating, Blackgrass [3, 24]: 50
Plant response rating, Blackgrass [3, 28]: 60
Plant response rating, Corn (corn (Zea mays); [24]): 0
Plant response rating, Corn (corn (Zea mays); [28]): 70
Plant response rating, Ryegrass, Italian [4, 22]: 30
Plant response rating, Ryegrass, Italian [4, 23]: 30
Plant response rating, Ragweed [5, 22]: 0
Plant response rating, Ragweed [5, 23]: 30
Plant response rating, Barnyardgrass [6, 24]: 90
Plant response rating, Barnyardgrass [6, 28]: 90
Plant response rating, Pigweed [7, 22]: 0
Plant response rating, Pigweed [7, 23]: 0
Plant response rating, Galium [8, 22]: 0
Plant response rating, Galium [8, 23]: 50
Plant response rating, Foxtail, Giant [9, 22]: 90
Plant response rating, Foxtail, Giant [9, 23]: 90
Plant response rating, Rice (rice (Oryza sativa)): 0
Plant response rating (scale of 0 to 100), Rice (rice (Oryza sativa); 62 g ai/ha): 0
Plant response rating (scale of 0 to 100), Rice (rice (Oryza sativa); 125 g ai/ha): 0
Plant response rating (scale of 0 to 100), Rice (rice (Oryza sativa); 250 g ai/ha): 10
Plant response rating, Sedge, Umbrella [10]: 0
Plant response rating (scale of 0 to 100), Sedge, Umbrella ([10]; 62 g ai/ha): 0
Plant response rating (scale of 0 to 100), Sedge, Umbrella ([10]; 125 g ai/ha): 0
Plant response rating (scale of 0 to 100), Sedge, Umbrella ([10]; 250 g ai/ha): 0
Plant response rating, Barnyardgrass [11]: 0
Plant response rating (scale of 0 to 100), Barnyardgrass ([11]; 62 g ai/ha): 35
Plant response rating (scale of 0 to 100), Barnyardgrass ([11]; 125 g ai/ha): 65
Plant response rating (scale of 0 to 100), Barnyardgrass ([11]; 250 g ai/ha): 90
Plant response rating, Ducksalad [12]: 20
Plant response rating (scale of 0 to 100), Ducksalad ([12]; 62 g ai/ha): 50
Plant response rating (scale of 0 to 100), Ducksalad ([12]; 125 g ai/ha): 75
Plant response rating (scale of 0 to 100), Ducksalad ([12]; 250 g ai/ha): 100
Plant response rating, Kochia (Kochia (Kochia scoparia) [13]; [26]): 0
Plant response rating, Kochia (Kochia (Kochia scoparia) [13]; [27]): 40
Plant response rating, Ryegrass, Italian [14, 26]: 20
Plant response rating, Ryegrass, Italian [14, 27]: 90
Plant response rating, Ragweed [15, 26]: 0
Plant response rating, Ragweed [15, 27]: 20
Plant response rating, Barnyardgrass [16, 26]: 90
Plant response rating, Barnyardgrass [16, 27]: 90
Plant response rating, Pigweed [17, 26]: 0
Plant response rating, Pigweed [17, 27]: 20
Plant response rating, Foxtail, Giant [18, 26]: 100
Plant response rating, Foxtail, Giant [18, 27]: 100
Plant response rating, Sedge, Umbrella [19]: 0
Plant response rating, Barnyardgrass [20]: 80
Plant response rating, Rice (rice (Oryra sativa)): 15
Plant response rating, Ducksalad [21]: 100
